Usually IC50 stands for the concentration that inhibits the measured activity by half.

SMILES strings stand for the structures.

T1 sequence (Q9Y233 715-1055): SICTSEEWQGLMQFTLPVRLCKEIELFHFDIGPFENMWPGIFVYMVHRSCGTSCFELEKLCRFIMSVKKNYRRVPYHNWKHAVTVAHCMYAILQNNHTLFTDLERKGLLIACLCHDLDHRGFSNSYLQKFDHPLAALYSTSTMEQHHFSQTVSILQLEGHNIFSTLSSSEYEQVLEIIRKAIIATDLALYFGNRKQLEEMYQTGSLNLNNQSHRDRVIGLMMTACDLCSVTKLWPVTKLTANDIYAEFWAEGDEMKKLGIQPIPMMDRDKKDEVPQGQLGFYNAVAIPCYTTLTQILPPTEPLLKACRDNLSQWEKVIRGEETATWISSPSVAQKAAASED

This assay has as its target T1, PDE10A2 (Homo sapiens, UniProt Q9Y233).
T1 construct: residues serine 449 to aspartate 789; His6 (H6) with Gateway linker and thrombin cleavage site (N, cleaved yes); made in house; host or cells: E. coli BL21(DE3) pLysS
Put plainly: PDE10A2 Scintillation Proximity Assay (SPA), [3H]-cGMP hydrolysis. The assay is classed as biochemical. Conditions: catalytic domain of human PDE10A2 (S449-D789), 0.25 nM enzyme, 50 nM cGMP + 50 nM [3H]-cGMP, 30 minutes at room temperature; read-out: PDE10A2 inhibition IC50. As for the experimental part: The following tests were carried out in order to determine the activity of the compounds of the present invention. PDE10 activity of the compounds of the present invention is determined using a Scintillation Proximity Assay (SPA)-based method similar to the one previously described (Fawcett, L. et al., ProcNatl Acad Sci USA (2000) 97(7):3702-3707).
PDE10A1 and PDE10A2 are two splice variants of PDE10A. There are these 2 splice variants known, which differ in the N-terminal part of the protein. The catalytic domains of PDE10A1 and PDE10A2 are identical. The assay for PDE10A2 described below is therefore also representative for PDE10A1 and also for PDE10A in general.
The PDE10A2 assay was performed in a two step procedure in 96-well micro titer plates. The reaction mixture of 80 μl contained 20 mM HEPES/10 mM MgCl2/[…] (pH 7.5), 50 nM cGMP (Sigma) and 50 nM [^3H]-cGMP (GE Healthcare), 0.25 nM PDE10A2 with or without a specific test compound. A range of concentrations of the potential inhibitor was used to generate data for calculating the concentration of inhibitor resulting in 50% of the effect (e.g. IC50, the concentration of the competitor inhibiting PDE10A2 activity 50%). Non-specific activity was tested without the enzyme. The reaction was initiated by addition of the substrate solution (cGMP and [^3H]-cGMP) and allowed to progress for 30 minutes at room temperature. The reaction was terminated by transferring 50 μl of the reaction mixture into an OptiPlate (Perkin Elmer) containing 25 μl of YSi-SPA scintillation beads (GE Healthcare) in 18 mM zinc sulphate solution (stop reagent). After 1 h under shaking, the plate was centrifuged one minute at 1000 rpm to allow beads to settle. Afterwards, radioactive counts were measured on a Perkin Elmer TopCount Scintillation plate reader.
The catalytic domain of human PDE10A2, residues serine 449 to aspartate 789, was amplified by PCR using cDNA (Origene) and the oligonucleotides 5′-GGGGACAAGTTTGT […]-3′ (with AttB1 recombination site in bold and thrombin protease cleavage site in italics) and 5′-[…]-3′ (with AttB2 recombination site in bold) which conferred Gateway recombination sites. The PCR product was used in a BP recombination reaction with pDONR221 to generate pENTR Thm-PDE10A2(S449-D789) which was DNA sequence verified and then used in an LR recombination reaction with a Gateway modified version of pET11a. The resulting expression vector, placT7.2H6-(gwl)-Thm-PDE10A2(S449-D789) was DNA sequence confirmed and transformed into E. coli strain BL21(DE3) pLysS and recombinant protein was produced in TB medium at 20° C. by induction to a final IPTG concentration of 0.5 mM at an optical density of 1.0 at 600 nm for 20 hours. About 30% of the protein was in the soluble fraction of the cell homogenate. The protein was purified using sequential chromatography on Ni-NTA and HiTrapQ/HiTrapS. After thrombin digest at room temperature a HiTrapChelating/HiTrap Benzamindin chromatography removed impurities, uncleaved protein and thrombin. Final purification of PDE10A2(S449-D789) was performed on a Superdex 75 size exclusion chromatography equilibrated with 25 mM HEPES pH 8.4, 0.15 M NaCl. The yield of pure protein was 2 mg/liter of culture volume is relatively low. The purity of the protein was >95%, monomeric and monodisperse as shown by SDS-PAGE, HPLC and analytical ultracentrifugation.
In general terms: Scintillation proximity formats need no separation of bound from free tracer.
With `O=c1ccn(-c2ccncc2)nc1-c1ccnn1-c1cccc(Cl)n1` [Example 1, 3-[2-(6-Chloro-pyridin-2-yl)-2H-pyrazol-3-yl]-1-pyridin-4-yl-1H-pyridazin-4-one], the IC50 was 8100 nM. With `N#Cc1cccc(-n2nccc2-c2nn(-c3ccncc3)ccc2=O)c1` [Example 3, 3-[5-(4-Oxo-1-pyridin-4-yl-1,4-dihydro-pyridazin-3-yl)-pyrazol-1-yl]-benzonitrile] the figure was 319 nM; with `O=c1ccn(-c2ccncc2)nc1-c1ccnn1-c1ccccc1F` [Example 4, 3-[2-(2-Fluoro-phenyl)-2H-pyrazol-3-yl]-1-pyridin-4-yl-1H-pyridazin-4-one], 115 nM; with `O=C(O)c1cccc(-n2nccc2-c2nn(-c3ccncc3)ccc2=O)c1` [Example 5, 3-[5-(4-Oxo-1-pyridin-4-yl-1,4-dihydro-pyridazin-3-yl)-pyrazol-1-yl]-benzoic acid], 899 nM. Then `O=c1ccn(-c2ccncc2)nc1-c1ccnn1-c1ccc(Cl)cc1` [Example 6, 3-[2-(4-Chloro-phenyl)-2H-pyrazol-3-yl]-1-pyridin-4-yl-1H-pyridazin-4-one], with 188 nM; and `O=c1ccn(-c2ccncc2)nc1-c1ccnn1-c1ccc(F)cc1` [Example 7, 3-[2-(4-Fluoro-phenyl)-2H-pyrazol-3-yl]-1-pyridin-4-yl-1H-pyridazin-4-one], with 183 nM. With `NS(=O)(=O)c1ccc(-n2nccc2-c2nn(-c3ccncc3)ccc2=O)cc1` [Example 8, 4-[5-(4-Oxo-1-pyridin-4-yl-1,4-dihydro-pyridazin-3-yl)-pyrazol-1-yl]-benzenesulfonamide] the figure was 6330 nM.

`COC(=O)c1cccc(-n2nccc2-c2nn(-c3ccncc3)ccc2=O)c1` [Example 10, 3-[5-(4-Oxo-1-pyridin-4-yl-1,4-dihydro-pyridazin-3-yl)-pyrazol-1-yl]-benzoic acid methyl ester]: the concentration for half-maximal inhibition (IC50) was 48 nM. For `Cc1ccc(-n2nccc2-c2nn(-c3ccncc3)ccc2=O)cc1` [Example 11, 1-Pyridin-4-yl-3-(2-p-tolyl-2H-pyrazol-3-yl)-1H-pyridazin-4-one], the IC50 is 103 nM. Then `O=c1ccn(-c2ccncc2)nc1-c1ccnn1-c1ccccc1Cl` [Example 12, 3-[2-(2-Chloro-phenyl)-2H-pyrazol-3-yl]-1-pyridin-4-yl-1H-pyridazin-4-one], with 228 nM; and `O=c1ccn(-c2ccnc(Cl)c2)nc1-c1ccnn1-c1cccc2ccccc12` [Example 13, 1-(2-Chloro-pyridin-4-yl)-3-(2-naphthalen-1-yl-2H-pyrazol-3-yl)-1H-pyridazin-4-one], with 11 nM. With `O=c1ccn(-c2ccncc2)nc1-c1ccnn1-c1ccc2c(c1)OCCO2` [Example 15, 3-[2-(2,3-Dihydro-benzo[1,4]dioxin-6-yl)-2H-pyrazol-3-yl]-1-pyridin-4-yl-1H-pyridazin-4-one] the figure was 80 nM; with `CS(=O)(=O)c1cc(-n2ccc(=O)c(-c3ccnn3-c3cccc4ccccc34)n2)ccn1` [Example 16, 1-(2-Methanesulfonyl-pyridin-4-yl)-3-(2-naphthalen-1-yl-2H-pyrazol-3-yl)-1H-pyridazin-4-one], 15 nM. Turning to `CS(=O)(=O)c1cc(-n2ccc(=O)c(-c3ccnn3-c3ccc4c(c3)OCCO4)n2)ccn1` [Example 17, 3-[2-(2,3-Dihydro-benzo[1,4]dioxin-6-yl)-2H-pyrazol-3-yl]-1-(2-methanesulfonyl-pyridin-4-yl)-1H-pyridazin-4-one], the IC50 was determined as 96 nM. With `O=c1ccn(-c2ccncc2)nc1-c1ccnn1-c1cccc(Cl)c1` [Example 18, 3-[2-(3-Chloro-phenyl)-2H-pyrazol-3-yl]-1-pyridin-4-yl-1H-pyridazin-4-one] the figure was 140 nM; with `Cc1cc(-n2nccc2-c2nn(-c3ccncc3)ccc2=O)ccn1` [Example 19, 3-[2-(2-Methyl-pyridin-4-yl)-2H-pyrazol-3-yl]-1-pyridin-4-yl-1H-pyridazin-4-one], 417 nM. With `O=c1ccn(-c2ccncc2)nc1-c1ccnn1-c1ccnc2ccccc12` [Example 20, 1-Pyridin-4-yl-3-(2-quinolin-4-yl-2H-pyrazol-3-yl)-1H-pyridazin-4-one] the figure was 9 nM.

For the compound `O=c1ccn(-c2ccncc2)nc1-c1ccnn1-c1cccc2cnccc12` [Example 21, 3-(2-Isoquinolin-5-yl-2H-pyrazol-3-yl)-1-pyridin-4-yl-1H-pyridazin-4-one], the IC50 is 28 nM. Consider `O=c1ccn(-c2ccncc2)nc1-c1ccnn1-c1cccc2ncccc12` [Example 22, 1-Pyridin-4-yl-3-(2-quinolin-5-yl-2H-pyrazol-3-yl)-1H-pyridazin-4-one], for which the IC50 came out at 35 nM.

Turning to `O=c1ccn(-c2ccncc2)nc1-c1ccnn1-c1ccnc(Cl)c1` [Example 23, 3-[2-(2-Chloro-pyridin-4-yl)-2H-pyrazol-3-yl]-1-pyridin-4-yl-1H-pyridazin-4-one], the IC50 was found to be 1210 nM. Consider `O=c1ccn(-c2ccncc2)nc1-c1ccnn1-c1cccc2cccnc12` [Example 26, 1-Pyridin-4-yl-3-(2-quinolin-8-yl-2H-pyrazol-3-yl)-1H-pyridazin-4-one], for which the IC50 stood at 806 nM. With `O=c1ccn(-c2ccncc2)nc1-c1ccnn1-c1cccc2ccncc12` [Example 27, 3-(2-Isoquinolin-8-yl-2H-pyrazol-3-yl)-1-pyridin-4-yl-1H-pyridazin-4-one] the figure was 126 nM; with `CN(C)S(=O)(=O)c1cccc(-n2nccc2-c2nn(-c3ccncc3)ccc2=O)c1` [Example 28, N,N-Dimethyl-3-[5-(4-oxo-1-pyridin-4-yl-1,4-dihydro-pyridazin-3-yl)-pyrazol-1-yl]-benzenesulfonamide], 3230 nM. Then `O=c1ccn(-c2ccncc2)nc1-c1ccnn1-c1cccc(F)c1F` [Example 29, 3-[2-(2,3-Difluoro-phenyl)-2H-pyrazol-3-yl]-1-pyridin-4-yl-1H-pyridazin-4-one], with 219 nM; and `O=c1ccn(-c2ccncc2)nc1-c1ccnn1-c1ccccc1` [Example 30, 3-(2-Phenyl-2H-pyrazol-3-yl)-1-pyridin-4-yl-1H-pyridazin-4-one], with 69 nM. `O=c1ccn(-c2ccncc2)nc1-c1ccnn1-c1ccncc1` [Example 31, 1-Pyridin-4-yl-3-(2-pyridin-4-yl-2H-pyrazol-3-yl)-1H-pyridazin-4-one]: the IC50 turned out to be 811 nM. Then `O=c1ccn(-c2cccnc2)nc1-c1ccnn1-c1ccc2c(c1)OCO2` [Example 32, 3-(2-Benzo[1,3]dioxol-5-yl-2H-pyrazol-3-yl)-1-pyridin-3-yl-1H-pyridazin-4-one], with 150 nM; and `O=c1ccn(-c2cccnc2)nc1-c1ccnn1-c1ccccn1` [Example 33, 1-Pyridin-3-yl-3-(2-pyridin-2-yl-2H-pyrazol-3-yl)-1H-pyridazin-4-one], with 2940 nM. With `O=c1ccn(-c2cccnc2)nc1-c1ccnn1-c1ccc2c(c1)OCCO2` [Example 34, 3-[2-(2,3-Dihydro-benzo[1,4]dioxin-6-yl)-2H-pyrazol-3-yl]-1-pyridin-3-yl-1H-pyridazin-4-one] the figure was 81 nM; with `O=c1ccn(-c2cccnc2)nc1-c1ccnn1-c1cccc(F)c1` [Example 35, 3-[2-(3-Fluoro-phenyl)-2H-pyrazol-3-yl]-1-pyridin-3-yl-1H-pyridazin-4-one], 285 nM; with `Cc1cncc(-n2ccc(=O)c(-c3ccnn3-c3ccc4c(c3)OCCO4)n2)c1` [Example 36, 3-[2-(2,3-Dihydro-benzo[1,4]dioxin-6-yl)-2H-pyrazol-3-yl]-1-(5-methyl-pyridin-3-yl)-1H-pyridazin-4-one], 71 nM.

The values are drawn from patent US9187455B2, “Substituted pyridazines as PDE10A inhibitors” (Hoffmann-La Roche Inc., priority 2009, dated 2015).
